Where two headings read alike, the source gives them in different places.
Legend:
Assay type in all cases: cell-based
[1] = tested on: human colon carcinoma cell line HCT116; assay: Inhibition of cell proliferation (GI50), HCT116; conditions: HCT 116 cells, 48 h, CellTiter-Glo
Protocol: (§1) Human breast cancer cell lines T-47D, human hepatocellular carcinoma cell line SNU398, human colon carcinoma cell line HCT116, human lung cancer cell line H1299, human leukemia cell line K562, human lymphoma cell line Raji, human B cell lymphoblastoid cell line Ramos, and human Burkitt's lymphoma cell line Namalwa were grown and harvested as in Example 100. An aliquot of […] of cells (4.4×10^4 cells/mL) was added to a well of a 96-well microtiter plate containing 5 μL of a 10% DMSO in RPMI-1640 media solution containing 10 nM to 100 μM of 3-(2-chlorophenyl)-6-(3,4-methylenedioxyphenyl)-7H-[1,2,4]triazolo[3,4-b][1,3,4]thiadiazine (1 nM to 10 μM final). An aliquot of 45 μL of cells was added to a well of a 96-well microtiter plate containing 5 μL of a 10% DMSO in RPMI-1640 media solution without compound as the control sample for maximal cell proliferation (LMax). The samples were mixed by agitation and then incubated at 37° C. for 48 h in a 5% CO2-95% humidity incubator. After incubation, the samples were removed from the incubator and 25 μL of CellTiter-Glo™ reagent (Promega) was added. The samples were mixed by agitation and incubated at room temperature for 10-15 min. Plates were then read using a luminescent plate reader (Model SPECTRAfluor Plus, Tecan) to give Ltest values.
(§2) The samples were mixed by agitation and then incubated at 37° C. for 0.5 h in a 5% CO2-95% humidity incubator. After incubation, the samples were removed from the incubator and 25 μL of CellTiter-Glo™ reagent (Promega) was added. The samples were mixed by agitation and incubated at […] 10-15 min at room temperature in a 5% CO2-95% humidity incubator. Fluorescence was read as above, (LStart) defining luminescence for initial cell number used as baseline in GI50 determinations.
(§3) Calculation: GI50 (dose for 50% inhibition of cell proliferation) is the concentration where [(Ltest−LStart)/(LMax−LStart)]=0.5.

[2] = tested on: human breast cancer cell line T-47D; assay: Inhibition of cell proliferation (GI50), T47D; conditions: T47D cells, 48 h, CellTiter-Glo
Protocol: as §1, §2, §3

[3] = tested on: human colon carcinoma cell line HCT116; assay: Caspase cascade activation (EC50), HCT116; conditions: Homo sapiens, HCT-116; HCT116 cells; caspase cascade activation; read-out: caspase potency (EC50) HCT116
In short: (§4)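 48 h compound exposure (0.016–10 μM final) at 37 °C, 5% CO2; then DEVD-R110 substrate in lysolecithin/DTT/PIPES pH 7.2 buffer, 3 h RT. Fluorescence ex485/em530; net RFU = T=3 h minus control T=0; ratio to control; sigmoidal fit → EC50 (nM).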

[4] = tested on: human hepatocellular carcinoma cell line SNU398; assay: Caspase cascade activation (EC50), SNU398; conditions: Homo sapiens, SNU-398; SNU398 cells; caspase cascade activation; read-out: caspase potency (EC50) SNU398
In short: as §4

[5] = tested on: human Burkitt's lymphoma cell line Namalwa; assay: Caspase cascade activation (EC50), Namalwa; conditions: Homo sapiens, Burkitts lymphoma cell; Namalwa cells; caspase cascade activation; read-out: caspase potency (EC50) Namalwa
In short: as §4

[6] = tested on: human breast cancer cell line T-47D; assay: Caspase cascade activation (EC50), T-47D; conditions: T47D cells, caspase cascade activation, read-out: caspase potency (EC50) T47D
In short: as §4

[7] = tested on: human hepatocellular carcinoma cell line SNU398; assay: Inhibition of cell proliferation (GI50), SNU398; conditions: SNU 398 cells, 48 h, CellTiter-Glo
Protocol: as §1, §2, §3

[8] = tested on: human Burkitt's lymphoma cell line Namalwa; assay: Inhibition of cell proliferation (GI50), Namalwa; conditions: Homo sapiens, Burkitts lymphoma cell; Namalwa cells, 48 h, CellTiter-Glo
Protocol: as §1, §2, §3

[9] = tested on: human lymphoma cell line Raji; assay: Inhibition of cell proliferation (GI50), Raji; conditions: Homo sapiens; Raji cells, 48 h, CellTiter-Glo
Protocol: as §1, §2, §3

[10] = tested on: human cancer cell line H1299; assay: Caspase cascade activation (EC50), H1299; conditions: NCI-H1299, H1299 cells, read-out: caspase potency (EC50) H1299
Protocol: Human breast cancer cell lines T-47D, human hepatocellular carcinoma cell line SNU398, human colon carcinoma cell line HCT116, human cancer cell line H1299, human Burkitt's lymphoma cell line Namalwa, human lymphoma cell line Raji, and human B cell lymphoblastoid cell line Ramos were grown according to media component mixtures designated by American Type Culture Collection+10% FCS (Invitrogen Corporation), in a 5% CO2-95% humidity incubator at 37° C. T-47D and H1299 cells were maintained at a cell density between 50 and 80% confluency at a cell density of 0.1 to 0.6×10^6 cells/mL. Cells were harvested at 600×g and resuspended at 0.65×10^6 cells/mL into appropriate media+10% FCS. An aliquot of 22.5 μL of cells was added to a well of a 384-well microtiter plate containing 2.5 μL of a 10% DMSO in RPMI-1640 media solution containing 0.16 to 100 μM of 3-(2-chlorophenyl)-6-(3,4-methylenedioxyphenyl)-7H-[1,2,4]triazolo[3,4-b][1,3,4]thiadiazine or other test compound (0.016 to 10 μM final). An aliquot of 22.5 μL of cells was added to a well of a 384-well microtiter plate containing 2.5 μL of a 10% DMSO in RPMI-1640 media solution without test compound as the control sample. The samples were mixed by agitation and then incubated at 37° C. for 48 h in a 5% CO2-95% humidity incubator. After incubation, the samples were removed from the incubator and 25 μL of a solution containing 14 μM of N—(Ac-DEVD)-N′-ethoxycarbonyl-R110 (SEQ ID No.:1) fluorogenic substrate (Cytovia, Inc.; WO99/18856), 20% sucrose (Sigma), 20 mM DTT (Sigma), 200 mM NaCl (Sigma), 40 mM Na PIPES buffer pH 7.2 (Sigma), and 500 μg/mL lysolecithin (Calbiochem) was added. The samples were mixed by agitation and incubated at room temperature. Using a fluorescent plate reader (Model SPECTRAfluor Plus, Tecan), an initial reading (T=0) was made approximately 1-2 min after addition of the substrate solution, employing excitation at 485 nm and emission at 530 nm, to determine the background fluorescence of the control sample. After the 3 h incubation, the samples were read for fluorescence as above (T=3 h). Calculation: The Relative Fluorescence Unit values (RFU) were used to calculate the sample readings as follows: RFU(T=3H)−Control RFU(T=0)=Net RFU(T=3h) The activity of caspase cascade activation was determined by the ratio of the net RFU value for 3-(2-chlorophenyl)-6-(3,4-methylenedioxyphenyl)-7H-[1,2,4]triazolo[3,4-b][1,3,4]thiadiazine (Example P) or other test compound to that of control samples. The EC50 (nM) was determined by a sigmoidal dose-response calculation (Prism 3.0, GraphPad Software Inc.).

[11] = tested on: human B cell lymphoblastoid cell line Ramos; assay: Caspase cascade activation (EC50), Ramos; conditions: Homo sapiens, RAMOS cells, read-out: caspase potency (EC50) RAMOS
In short: as §4

[12] = tested on: human lymphoma cell line Raji; assay: Caspase cascade activation (EC50), Raji; conditions: Homo sapiens, RAJI cells, read-out: caspase potency (EC50) RAJI
In short: as §4

[13] = tested on: human leukemia cell line K562; assay: Inhibition of cell proliferation (GI50), K562; conditions: Homo sapiens; K562 cells, 48 h, CellTiter-Glo
Protocol: as §1, §2, §3

[14] = tested on: human B cell lymphoblastoid cell line Ramos; assay: Inhibition of cell proliferation (GI50), Ramos; conditions: Homo sapiens; Ramos cells, 48 h, CellTiter-Glo
Protocol: as §1, §2, §3

COc1ccccc1-c1nnc2n1N=C(c1ccc(OC)c(OC)c1OC)CS2 [Example 42, 6-(2,3,4-Trimethoxyphenyl)-3-(2-methoxyphenyl)-7H-[1,2,4]triazolo[3,4-b][1,3,4]thiadiazine]
GI50 ([1]; Homo sapiens): 482 nM
GI50 ([2]; Homo sapiens): 288 nM
EC50 [3]: 753 nM
EC50 [4]: 488 nM
EC50 [5]: 316 nM
EC50 ([6]; Homo sapiens): 335 nM
GI50 ([7]; Homo sapiens): 121 nM
GI50 [8]: 433 nM

CCOc1ccc(C2=Nn3c(nnc3-c3ccc(C)cc3)SC2)cc1 [B, 3-(4-Methylphenyl)-6-(4-ethoxyphenyl)-7H-[1,2,4]triazolo[3,4-b][1,3,4]thiadiazine]
GI50 [9]: 133 nM
GI50 ([1]; Homo sapiens): 396 nM
EC50 [3]: 431 nM
EC50 [4]: 266 nM
EC50 [5]: 270 nM
EC50 [10]: 1250 nM
EC50 [11]: 331 nM
EC50 ([6]; Homo sapiens): 2710 nM
EC50 [12]: 455 nM
GI50 [13]: 267 nM
GI50 [14]: 108 nM
GI50 [8]: 254 nM

CCOc1ccc(C2=Nn3c(nnc3-c3ccccc3C)SC2)cc1 [L, 3-(2-Methylphenyl)-6-(4-ethoxyphenyl)-7H-[1,2,4]triazolo[3,4-b][1,3,4]thiadiazine]
GI50 [9]: 62 nM
GI50 ([1]; Homo sapiens): 141 nM
EC50 [3]: 126 nM
EC50 [4]: 92 nM
EC50 [5]: 62 nM
EC50 [10]: 339 nM
EC50 [11]: 93 nM
EC50 ([6]; Homo sapiens): 1340 nM
EC50 [12]: 141 nM
GI50 [13]: 27 nM
GI50 [14]: 17 nM
GI50 [8]: 24 nM

CCOc1cccc(-c2nnc3n2N=C(c2ccc4c(c2)OCO4)CS3)c1 [Example E1, 3-(3-Ethoxyphenyl)-6-(3,4-methylenedioxyphenyl)-7H-[1,2,4]triazolo[3,4-b][1,3,4]thiadiazine]
GI50 ([1]; Homo sapiens): 5000 nM
GI50 ([2]; Homo sapiens): 5000 nM
EC50 [3]: > 10000 nM
EC50 [4]: > 10000 nM
EC50 [5]: > 10000 nM
EC50 [11]: 2590 nM
EC50 ([6]; Homo sapiens): 2120 nM
EC50 [12]: 5400 nM
GI50 ([7]; Homo sapiens): 4600 nM

3-(3,5-Dimethoxyphenyl-4-(2-dimethylaminoethoxy)phenyl)-6-(4-methylphenyl)-7H-[1,2,4]triazolo[3,4-b][1,3,4]thiadiazine [Example 16]
GI50 [1]: 1150 nM
GI50 [2]: 936 nM
EC50 [6]: 609 nM
GI50 [7]: 2000 nM

COc1cc(-c2nnc3n2N=C(c2ccc(C)cc2)CS3)cc(OC)c1OC [Example 17, 3-(3,4,5-Trimethoxyphenyl)-6-(4-methylphenyl)-7H-[1,2,4]triazolo[3,4-b][1,3,4]thiadiazine]
GI50 ([1]; Homo sapiens): 21 nM
GI50 ([2]; Homo sapiens): 15 nM
EC50 [3]: 46 nM
EC50 [4]: 24 nM
EC50 [5]: 29 nM
EC50 [11]: 31 nM
EC50 ([6]; Homo sapiens): 118 nM
EC50 [12]: 50 nM
GI50 ([7]; Homo sapiens): 25 nM

COc1ccc(C2=Nn3c(nnc3-c3cccc(Cl)c3)SC2)cc1 [R, 3-(3-Chlorophenyl)-6-(4-methoxyphenyl)-7H-[1,2,4]triazolo[3,4-b][1,3,4]thiadiazine]
GI50 [9]: 89 nM
GI50 ([1]; Homo sapiens): 121 nM
EC50 [3]: 242 nM
EC50 [4]: 115 nM
EC50 [5]: 122 nM
EC50 [10]: 553 nM
EC50 [11]: 77 nM
EC50 ([6]; Homo sapiens): 557 nM
EC50 [12]: 109 nM
GI50 [13]: 42 nM
GI50 [14]: 17 nM
GI50 [8]: 117 nM

COc1ccc(C2=Nn3c(nnc3-c3ccccc3C)SC2)cc1 [Example N2, 3-(2-Methylphenyl)-6-(4-methoxyphenyl)-7H-[1,2,4]triazolo[3,4-b][1,3,4]thiadiazine]
GI50 [9]: 164 nM
GI50 ([1]; Homo sapiens): 171 nM
EC50 [3]: 34 nM
EC50 [4]: 31 nM
EC50 [5]: 41 nM
EC50 [11]: 29 nM
EC50 ([6]; Homo sapiens): 191 nM
EC50 [12]: 53 nM
GI50 [13]: 38 nM
GI50 [14]: 13 nM
GI50 [8]: 34 nM

COc1ccc(C2=Nn3c(nnc3-c3cccc(Br)c3)SC2)cc1 [Example I2, 3-(3-Bromophenyl)-6-(4-methoxyphenyl)-7H-[1,2,4]triazolo[3,4-b][1,3,4]thiadiazine]
GI50 [9]: 176 nM
GI50 ([1]; Homo sapiens): 376 nM
EC50 [3]: 612 nM
EC50 [4]: 329 nM
EC50 [5]: 629 nM
EC50 [11]: 379 nM
EC50 ([6]; Homo sapiens): 905 nM
EC50 [12]: 523 nM
GI50 [13]: 96 nM
GI50 [14]: 119 nM
GI50 [8]: 400 nM

COc1ccccc1-c1nnc2n1N=C(c1ccc(N3CCOCC3)cc1)CS2 [Example 25, 3-(2-Methoxyphenyl)-6-(4-morpholinophenyl)-7H-[1,2,4]triazolo[3,4-b][1,3,4]thiadiazine]
GI50 [9]: 285 nM
GI50 ([1]; Homo sapiens): 1980 nM
EC50 [3]: 1260 nM
EC50 [4]: 694 nM
EC50 [5]: 321 nM
EC50 [11]: 275 nM
EC50 ([6]; Homo sapiens): 612 nM
EC50 [12]: 511 nM
GI50 [13]: 317 nM
GI50 [14]: 105 nM
GI50 [8]: 161 nM
